# Reference: the supplement of paper PMC10307832
# Compound: Cc1cnc(Nc2ccc(OCCN3CCCC3)cc2)nc1Nc1cccc(S(=O)(=O)NC(C)(C)C)c1 [Fedratinib] + NC(=O)Nc1cc(-c2cccc(F)c2)sc1C(=O)N[C@H]1CCCNC1 [AZD7762] (partner 0.2 µM)
# Assay: relative viability (nuclei count vs DMSO), 5 days (fraction); higher = more cells survive
# Details: first compound 0.1 µM
# Procedure, shortened: (§1)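 Medians of duplicate plates are given as relative viability. That measure is the nuclei count in treated wells divided by the count in vehicle wells. Counts were taken on 4× images of lung cancer cell lines in 1536-well plates, 5 days after pin-tool dosing the day after seeding with one drug alone or a fixed anchor-drug dose plus five library-drug doses (not always all listed) in √10 steps.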
row,Cell Line,relative viability
1,SW 900,0.621
2,NCI-H1395,0.385
3,CAL-12T,0.594
4,NCI-H1793,0.324
5,NCI-H1944,0.475
6,NCI-H358,0.502

# Same assay, conditions: first compound 0.3162 µM
row,Cell Line,relative viability
1,NCI-H2342,0.528
2,NCI-H727,0.465
3,NCI-H1703,0.138
4,NCI-H1993,0.694
5,NCI-H838,0.913
6,LCLC-103H,0.72
7,NCI-H2126,1.01
8,EMC-BAC-2,1.1
9,NCI-H2085,0.925
10,HCC-366,0.234
11,NCI-H1666,0.836
12,NCI-H596,1.04
13,LK-2,0.393
14,NCI-H2087,1.37
15,NCI-H1648,0.558
16,H3255,0.858
17,LOU-NH91,0.857
18,NCI-H2170,0.821
19,NCI-H522,0.851
20,SW 900,0.692
21,NCI-H1395,0.402
22,CAL-12T,0.618
23,NCI-H1793,0.402
24,NCI-H1944,0.594
25,NCI-H358,0.49

# Same assay, conditions: first compound 1 µM
row,Cell Line,relative viability
1,NCI-H2342,0.56
2,NCI-H727,0.576
3,NCI-H1703,0.121
4,NCI-H1993,0.688
5,NCI-H838,0.906
6,LCLC-103H,0.647
7,NCI-H2126,1.01
8,EMC-BAC-2,0.912
9,NCI-H2085,0.928
10,HCC-366,0.188
11,NCI-H1666,0.807
12,NCI-H596,1.13
13,LK-2,0.293
14,NCI-H2087,1.42
15,NCI-H1648,0.548
16,H3255,0.794
17,LOU-NH91,0.658
18,NCI-H2170,0.644
19,NCI-H522,0.77
20,SW 900,0.608
21,NCI-H1395,0.377
22,CAL-12T,0.666
23,NCI-H1793,0.326
24,NCI-H1944,0.458
25,NCI-H358,0.438

# Compound: Cc1cnc(Nc2ccc(OCCN3CCCC3)cc2)nc1Nc1cccc(S(=O)(=O)NC(C)(C)C)c1 [Fedratinib] + CS(=O)(=O)N1CCN(Cc2cc3nc(-c4cccc5[nH]ncc45)nc(N4CCOCC4)c3s2)CC1 [Pictilisib] (partner 1 µM)
# Assay: as above
# Details: first compound 0.1 µM
# Procedure, shortened: as §1
row,Cell Line,relative viability
1,NCI-H727,0.378
2,NCI-H1650,0.355
3,EBC-1,0.27
4,NCI-H1703,0.244
5,NCI-H1993,0.779
6,SW 1573,0.444
7,NCI-H838,0.449
8,LCLC-103H,0.536
9,NCI-H520,0.267
10,NCI-H2126,0.489
11,EMC-BAC-2,0.499
12,NCI-H2085,0.361
13,Calu-6,0.845
14,HCC-366,0.136
15,NCI-H1666,0.409
16,NCI-H596,0.342
17,NCI-H2087,0.705
18,SK-MES-1,0.314
19,H3255,0.42

row,Cell Line,relative viability
1,COR-L23,0.891
2,COR-L 105,0.364
3,IA-LM,0.26
4,LOU-NH91,0.432
5,NCI-H2170,0.266
6,A549,0.531
7,NCI-H2009,0.699
8,NCI-H661,0.404
9,SK-LU-1,0.514
10,NCI-H1395,0.515
11,NCI-H1299,0.629
12,CAL-12T,0.454
13,NCI-H2228,0.363
14,NCI-H2023,0.245
15,NCI-H1793,0.34
16,NCI-H1563,0.608
17,NCI-H1944,0.333
18,NCI-H358,0.319

# Same assay, conditions: first compound 0.3162 µM
row,Cell Line,relative viability
1,NCI-H727,0.317
2,NCI-H1650,0.571
3,EBC-1,0.33
4,NCI-H1703,0.233
5,NCI-H1993,0.872
6,SW 1573,0.391
7,NCI-H838,0.47
8,LCLC-103H,0.678
9,NCI-H520,0.315
10,NCI-H2126,0.514
11,EMC-BAC-2,0.575
12,NCI-H2085,0.442
13,Calu-6,0.866
14,HCC-366,0.0976
15,NCI-H1666,0.38
16,NCI-H596,0.388
17,LK-2,0.563
18,NCI-H2087,1
19,SK-MES-1,0.38

row,Cell Line,relative viability
1,H3255,0.48
2,COR-L23,0.809
3,COR-L 105,0.471
4,IA-LM,0.288
5,LOU-NH91,0.53
6,NCI-H2170,0.329
7,A549,0.465
8,NCI-H2009,0.919
9,NCI-H661,0.355
10,SK-LU-1,0.489
11,NCI-H1395,0.642
12,NCI-H1299,0.688
13,CAL-12T,0.615
14,NCI-H2228,0.432
15,NCI-H2023,0.246
16,NCI-H1793,0.305
17,NCI-H1563,0.711
18,NCI-H1944,0.344
19,NCI-H358,0.395

# Same assay, conditions: first compound 1 µM
row,Cell Line,relative viability
1,NCI-H727,0.164
2,NCI-H1650,0.155
3,EBC-1,0.251
4,NCI-H1703,0.204
5,NCI-H1993,0.771
6,SW 1573,0.463
7,NCI-H838,0.213
8,LCLC-103H,0.512
9,NCI-H520,0.215
10,NCI-H2126,0.391
11,EMC-BAC-2,0.538
12,NCI-H2085,0.375
13,Calu-6,0.736
14,HCC-366,0.19
15,NCI-H1666,0.224
16,NCI-H596,0.366
17,LK-2,0.399
18,NCI-H2087,0.27
19,SK-MES-1,0.283

row,Cell Line,relative viability
1,H3255,0.432
2,COR-L23,0.707
3,COR-L 105,0.284
4,IA-LM,0.199
5,LOU-NH91,0.516
6,NCI-H2170,0.221
7,A549,0.434
8,NCI-H2009,0.143
9,NCI-H661,0.329
10,SK-LU-1,0.285
11,NCI-H1395,0.469
12,NCI-H1299,0.529
13,CAL-12T,0.162
14,NCI-H2228,0.127
15,NCI-H2023,0.0814
16,NCI-H1793,0.306
17,NCI-H1563,0.712
18,NCI-H1944,0.302
19,NCI-H358,0.26

# Compound: COC1=CC=C(C=C1)COC2=C(C=C(C=C2)CC3=CN=C(N=C3N)N)OC [GW-2580] + Nc1ncn([C@H]2C[C@H](O)[C@@H](CO)O2)c(=O)n1 [Decitabine] (partner 2 µM)
# Assay: as above
# Details: first compound 0.08 µM
# Procedure, shortened: as §1
row,Cell Line,relative viability
1,NCI-H2342,0.673
2,NCI-H727,0.784
3,NCI-H1650,0.502
4,NCI-H1993,0.652
5,SW 1573,0.498
6,NCI-H838,0.438
7,LCLC-103H,0.752
8,NCI-H520,0.501
9,NCI-H2126,0.582
10,EMC-BAC-2,0.977
11,NCI-H2085,0.577
12,HCC-366,0.328
13,NCI-H1666,0.604
14,NCI-H596,1.12
15,LK-2,0.227
16,NCI-H2087,0.276
17,NCI-H1648,0.531

row,Cell Line,relative viability
1,SK-MES-1,0.361
2,H3255,0.564
3,COR-L23,0.451
4,COR-L 105,0.755
5,LOU-NH91,0.82
6,NCI-H2170,0.521
7,NCI-H522,0.738
8,SW 900,0.467
9,NCI-H2009,0.415
10,NCI-H661,0.597
11,SK-LU-1,0.631
12,NCI-H1395,0.793
13,NCI-H2023,0.22
14,NCI-H1793,0.493
15,NCI-H1944,0.414
16,NCI-H358,0.208

# Same assay, conditions: first compound 0.8 µM
row,Cell Line,relative viability
1,NCI-H2342,0.654
2,NCI-H727,1.12
3,NCI-H1650,0.396
4,NCI-H1993,0.665
5,SW 1573,0.58
6,NCI-H838,0.466
7,LCLC-103H,0.724
8,NCI-H520,0.489
9,NCI-H2126,0.614
10,EMC-BAC-2,0.961
11,NCI-H2085,0.542
12,HCC-366,0.375
13,NCI-H1666,0.888
14,NCI-H596,0.883
15,LK-2,0.3
16,NCI-H2087,0.267
17,SK-MES-1,0.399

row,Cell Line,relative viability
1,H3255,0.613
2,COR-L23,0.462
3,COR-L 105,0.739
4,LOU-NH91,0.861
5,NCI-H2170,0.464
6,A549,0.264
7,NCI-H522,0.62
8,SW 900,0.45
9,NCI-H2009,0.427
10,NCI-H661,0.542
11,SK-LU-1,0.673
12,NCI-H1395,0.689
13,NCI-H2023,0.239
14,NCI-H1793,0.614
15,NCI-H1944,0.421
16,NCI-H358,0.206

# Same assay, conditions: first compound 2.53 µM
row,Cell Line,relative viability
1,NCI-H2342,0.692
2,NCI-H727,0.808
3,NCI-H1650,0.468
4,NCI-H1993,0.514
5,SW 1573,0.422
6,NCI-H838,0.435
7,LCLC-103H,0.661
8,NCI-H520,0.524
9,NCI-H2126,0.574
10,NCI-H2085,0.541
11,HCC-366,0.352
12,NCI-H1666,0.738
13,NCI-H596,1.89
14,LK-2,0.253
15,NCI-H2087,0.237
16,NCI-H1648,0.464
17,SK-MES-1,0.309

row,Cell Line,relative viability
1,H3255,0.557
2,COR-L23,0.448
3,COR-L 105,0.675
4,LOU-NH91,0.782
5,NCI-H2170,0.47
6,A549,0.21
7,NCI-H522,0.668
8,SW 900,0.422
9,NCI-H2009,0.378
10,NCI-H661,0.516
11,SK-LU-1,0.55
12,NCI-H1395,0.753
13,NCI-H2023,0.222
14,NCI-H1793,0.473
15,NCI-H1944,0.45
16,NCI-H358,0.201

# Same assay, conditions: first compound 8 µM
row,Cell Line,relative viability
1,NCI-H2342,0.735
2,NCI-H727,0.768
3,NCI-H1650,0.372
4,NCI-H1993,0.63
5,SW 1573,0.537
6,NCI-H838,0.426
7,LCLC-103H,0.706
8,NCI-H520,0.545
9,NCI-H2126,0.569
10,EMC-BAC-2,0.943
11,NCI-H2085,0.589
12,HCC-366,0.449
13,NCI-H1666,0.698
14,NCI-H596,0.937
15,LK-2,0.334
16,NCI-H2087,0.276
17,NCI-H1648,0.552

row,Cell Line,relative viability
1,SK-MES-1,0.422
2,H3255,0.576
3,COR-L23,0.432
4,COR-L 105,0.558
5,LOU-NH91,0.905
6,NCI-H2170,0.467
7,A549,0.288
8,NCI-H522,0.682
9,SW 900,0.472
10,NCI-H2009,0.482
11,NCI-H661,0.546
12,SK-LU-1,0.668
13,NCI-H1395,0.776
14,NCI-H2023,0.296
15,NCI-H1793,0.503
16,NCI-H1944,0.395
17,NCI-H358,0.217
